In patent publication US6284910A, “Farnesyl pyrophosphate analogs” (University of Kentucky Research Foundation, priority 1999, dated 2001):
Entries after “also recorded” stand apart in the source; their conditions may differ.

Key:
Xenopus laevis oocytes = assay: Xenopus laevis oocyte maturation assay (GVBD) with oncogenic H-Ras in mevinolin-treated oocytes; format: cell-based
Excerpt: Recently, a novel methodology involving the microinjection of known amounts of Ras into Xenopus oocytes has been described (see references 24, 45, infra), thereby permitting a quantitative structure-function analysis of H-Ras farnesyl-group for signal transduction in vivo. The approach makes use of enzymatic methods to attach structurally related farnesyl analogs onto the prenylation site of H-Ras combined with microinjection procedures to study their in vivo function. Oocytes are naturally arrested at the G2-M boundary of the first meiotic cell division. (See reference 80, infra). When microinjected with oncogenic H-Ras, oocytes reenter the cell cycle, which is monitored by germinal vesicle breakdown (GVBD) by the appearance of a white spot in the animal hemisphere. GVBD is accompanied by activation of the mitogen-activated protein kinase (MAPK) cascade. (See 81, 82, infra). […] (See references 24, 45, infra). These biochemical effects are strictly dependent on in vivo farnesylation of the injected H-Ras protein since mutation of the CaaX prenylation motif, blocking isoprenoid biosynthesis, and inhibition of FTase in oocytes all suppress these activities. (See references 83-85, infra). Thus, the system provides a method to study the in vivo role of prenylation by analyzing the ability of FPP analogues to rescue H-Ras biological functions in isoprenoid-depleted oocytes. […] Oocytes were isolated from X. laevis females and allowed to recover overnight. (See 24, 45, infra).

GGTase I = assay: Transfer of [^3 H]AGPP by GGTase I to H-Ras-CVLL; format: biochemical
squalene synthase = biological target: T1, squalene synthase (Bos taurus, UniProt Q32KR6); assay: Conversion of [^3 H]AGPP to organic soluble products by squalene synthase; format: biochemical, bovine; conditions: in vitro; listed as [^3 H]AGPP
T1 construct: squalene synthase activity present in bovine brain microsome fractions; from tissue; host or cells: bovine brain microsomes (crude)
T1 sequence (Q32KR6 1-417): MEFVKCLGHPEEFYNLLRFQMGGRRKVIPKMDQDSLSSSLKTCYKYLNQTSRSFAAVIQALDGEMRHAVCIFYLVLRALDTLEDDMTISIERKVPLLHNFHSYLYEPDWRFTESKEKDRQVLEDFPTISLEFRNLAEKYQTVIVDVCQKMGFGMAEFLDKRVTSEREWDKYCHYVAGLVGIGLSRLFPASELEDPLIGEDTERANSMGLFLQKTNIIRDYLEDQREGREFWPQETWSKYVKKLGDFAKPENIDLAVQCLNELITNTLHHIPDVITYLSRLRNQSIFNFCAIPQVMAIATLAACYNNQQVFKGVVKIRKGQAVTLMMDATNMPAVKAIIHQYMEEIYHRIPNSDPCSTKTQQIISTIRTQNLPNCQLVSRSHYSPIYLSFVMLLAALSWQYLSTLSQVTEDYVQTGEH
Description: Assay for Squalene Synthase Activity--Initial rates of squalene synthase activity present in bovine brain microsome fractions were assayed as previously described (19) with minor modifications. […] […] Assay mixtures were incubated for 30 min at 37° C., and the reactions terminated by the addition of 50 μl of 40% (wt/vol) KOH and then 100 μl of 95% ethanol. The resulting mixtures were incubated at 60° C. for 2 h and then cooled to room temperature. Authentic carrier squalene (20 μg) was added to each reaction tube, which were then extracted three times with petroleum ether. The lipid extracts were pooled, washed with water three times, and evaporated under a stream of N2. The lipid residue was redissolved in 100 μl CHCl3 /CH3 OH (2:1 vol/vol) and an aliquot (30 μl) was taken to determine the amount of labeled lipid formed by scintillation spectrometry. The remaining sample was analyzed on Silica gel G 60 TLC plates by developing with hexane (33). In all analyses the squalene standard was located by anisaldehyde spray reagent (34), and radioactive zones were located with a Bioscan Imaging System 200-IBM.
Some of the previously characterized FTase inhibitors, particularly those competitive for FPP binding, have been described as inhibitors of squalene synthase, an enzyme that utilizes FPP and is an important secondary regulatory protein in the cholesterol biosynthetic pathway (38).

FTase [1] = biological target: T2, FTase (Rattus norvegicus, UniProt Q02293+Q04631); assay: Continuous fluorescence assay: transfer of FPP and analogs to N-dansyl-GCVLS by FTase; format: biochemical; conditions: excitation 340 nm, 505 nm
Excerpt: FIG. 8. Progress Curves for Transfer of FPP and Analog Pyrophosphates to Dansyl-GCVLS by FTase. The reaction is monitored for fluorescence intensity at 505 nm with excitation at 340 nm. (a) FPP, (b) AGPP, (c) 8-(pentafluoroaniline)geranyl pyrophosphate, (d) blank.
Continuous Fluorescence Assay for Analog Transfer: An important requirement for these studies is the development of a rapid technique for evaluating whether FPP analogs that are efficiently and appropriately transferred to target substrates by FTase. The analogs were evaluated for their ability to be transferred by FTase to the pentapeptide N-dansyl-GCVLS in a continuous fluorescence assay. (See references 78, 79, infra). There is a time dependent increase in the fluorescence of the dansyl group due to the local increase in hydrophobicity as the adjacent cysteine residue is isoprenylated. […] (FIG. 8).

FTase [2] = biological target: T2, FTase; assay: Inhibition of FTase-catalyzed transfer of [^3 H]AGPP to p21^H-ras; format: biochemical; set-up: H-Ras is only the protein substrate; conditions: non-radiolabeled compound, time and concentration dependent transfer
Description: Assay for Farnesyltransferase Activity--Farnesyltransferase activity was assayed by measuring the amount of [^3 H]farnesyl or [^3 H]anilinogeranyl transferred from [^3 H]FPP or [^3 H]AGPP to recombinant p21^H-ras, as described previously (31). Unless otherwise stated, each reaction mixture contained the following components in a final volume of 25 μl: 50 mM Tris (pH 7.4), 20 mM KCl, 0.2% octyl β-glucopyranoside, 1 mM dithiothreitol, 10-20 ng recombinant FTase, 5 μM p21^Ha-ras, 3 mM MgCl2, 50 μM ZnCl2, and 0.6 μM [^3 H]FPP (33,000 dpm/pmol; American Radiochemical Co.) or 0.1-5 μM [^3 H]AGPP (37,400 dpm/pmol). Following incubation for the indicated times at 37° C., the amount of [^3 H]prenyl transferred was measured by ethanol-HCl precipitation and filtration on glass fiber filters with modification as previously described (19). A blank value was determined in parallel incubation mixtures containing no enzyme. This blank value was subtracted from each reaction before calculating pmol [^3 H]prenyl transferred.
The observed inhibition kinetics could be a manifestation of the ability of AGPP to act as an alternative substrate for FTase. To evaluate the potential of AGPP to serve as a substrate of FTase, [^3 H]-AGPP was prepared by a similar route as described above, incorporating tritium with a specific activity of 17 Ci/mmol (synthesis to be reported elsewhere). […] The incorporated radioactivity was detected as a band of the expected molecular weight of farnesylated p21^H-ras on SDS-polyacrylamide gels (FIG. 4A, inset). […] The concentration of [^3 H]AGPP that gave half-maximal reaction velocity was approximately 0.5 μM (FIG. 4B).

## C/C(=C\COP(=O)(O)OP(=O)(O)O)CC/C=C(\C)CNc1ccccc1 [AGPP, (E,E)-8-Aniline-3,7-dimethyl-2,6-octadiene pyrophosphate]
Xenopus laevis oocytes; H-Ras and AGPP, mevinolin-treated oocytes, longer than for FPP
  additional time necessary to achieve 50% maturation versus FPP: 2 to 4 h
Xenopus laevis oocytes; co-microinjected with oncogenic H-Ras, 50 μM mevinolin-treated oocytes
  rescue of oncogenic H-Ras biological activity (oocyte maturation): rescues the biological activity of oncogenic H-Ras in isoprenoid depleted oocytes with delayed maturation kinetics relative to FPP; also recorded: rescues the ability of H-Ras to induce oocyte maturation in mevinolin-treated cells
Xenopus laevis oocytes; compound alone
  effect when given without H-Ras: neither FPP nor AGPP alone displayed any biological effect
GGTase I
  transfer by GGTase I, in words: transferred by GGTase I to H-Ras-CVLL with a low efficiency
Squalene synthase
  conversion to organic soluble products: showed no activity; also recorded: failed to detect any conversion
FTase [1]
  time-dependent increase in dansyl fluorescence / transfer to dansyl peptide, in words: transferred efficiently
FTase [1]; listed as 1
  time-dependent increase in dansyl fluorescence / transfer to dansyl peptide, in words: Time-dependent increases in the fluorescence of the dansyl group
FTase [2]
  inhibition of transfer of [^3 H]AGPP to p21^H-ras, in words: found to inhibit
